Molecular target: human CXCR3A (Homo sapiens (Human), UniProt P49682)
Experiment: FLIPR assay
Type: cell-based
Settings: CHO-K1 cells expressing the human CXCR3A coupled to Galpha(16); CXCL10 agonist 20 nM; Fluo-4-AM fluorescence; mean values if determined several times
Method: The bioactivity of compounds is tested in a fluorometric imaging plate reader (FLIPR: Molecular Devices) using engineered CHO-K1 cells expressing the human CXCR3A coupled to a G protein (Galpha(16)). Cells are plated the day prior to bioassay in F12 medium supplemented with 10% FBS and G418 and hygromycin antibiotics to maintain recombinant selection. At the day of bioassay, cells are washed and dye loaded for one hour with Fluo-4-AM (Invitrogen) in Hanks Balanced Salt Solution (Invitrogen), buffered with 20 mM Hepes at pH 7.4 and sodium bicarbonate (0.015%), containing 5 mM probenecid. […] Cells are washed free of excess dye and 60 microliter of wash buffer is added. Stock solutions of test compounds are made up at a concentration of 10 mM in DMSO, and serially diluted in dilution buffer to concentrations required for inhibition dose response curves. After a 10 minute incubation period at 37° C., 10 microliters of each compound dilution are transferred from a compound plate to the plate containing the recombinant cells in the FLIPR instrument according to the manufacturer's instructions. Following basal readings, 10 microliter CXCL10 agonist at a concentration of 20 nM (from Peprotech) is added, again using the FLIPR instrument. Changes in fluorescence are monitored before and after addition of the test compounds. Emission peak values above base level after CXCL10 addition are exported after base line subtraction. The program XLfit is used to fit the data to a single site dose response curve and to calculate IC50 values.

Sequence of human CXCR3A (P49682 whole entry): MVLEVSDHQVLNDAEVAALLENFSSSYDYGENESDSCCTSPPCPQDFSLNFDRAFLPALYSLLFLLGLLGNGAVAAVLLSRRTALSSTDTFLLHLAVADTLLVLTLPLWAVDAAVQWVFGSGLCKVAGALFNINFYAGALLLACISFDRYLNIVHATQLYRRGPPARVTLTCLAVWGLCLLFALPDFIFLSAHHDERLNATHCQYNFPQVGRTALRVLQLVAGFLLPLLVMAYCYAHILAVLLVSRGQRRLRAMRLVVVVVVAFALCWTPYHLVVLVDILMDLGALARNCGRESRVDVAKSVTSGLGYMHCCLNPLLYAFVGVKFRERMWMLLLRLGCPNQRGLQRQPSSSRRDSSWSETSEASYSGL

| Structure (SMILES) | IC50 [nM] |
| --- | --- |
| Cn1c(=O)n(CC(=O)N2CCN(c3scnc3-c3nc4ccc(F)cc4[nH]3)CC2)c2ccccc21 [Example 34, 1-(2-{4-[4-(6-Fluoro-1H-benzoimidazol-2-yl)-thiazol-5-yl]-piperazin-1-yl}-2-oxo-ethyl)-3-methyl-1,3-dihydro-benzoimidazol-2-one] | 10 |
| O=C(Cn1c(C(F)(F)F)nc2ccccc21)N1CCN(c2scnc2-c2nc3ccccc3[nH]2)CC1 [Example 64, 1-{4-[4-(1H-Benzoimidazol-2-yl)-thiazol-5-yl]-piperazin-1-yl}-2-(2-trifluoromethyl-benzoimidazol-1-yl)-ethanone] | 111 |
| Cc1nc(C)c(CC(=O)N2CCN(c3scnc3-c3nc4ccccc4[nH]3)CC2)s1 [Example 11, 1-{4-[4-(1H-Benzoimidazol-2-yl)-thiazol-5-yl]-piperazin-1-yl}-2-(2,4-dimethyl-thiazol-5-yl)-ethanone] | 311 |
| O=C(Cn1ccc2cccnc21)N1CCN(c2sc(-c3ccccc3)nc2-c2nc3ccccc3[nH]2)CC1 [Example 41, 1-{4-[4-(1H-Benzoimidazol-2-yl)-2-phenyl-thiazol-5-yl]-piperazin-1-yl}-2-pyrrolo[2,3-b]pyridin-1-yl-ethanone] | 77 |
| COc1ccccc1-c1nc(-c2nc3ccccc3[nH]2)c(N2CCN(C(=O)Cn3cnc4cccnc43)[C@H](C)C2)s1 [Example 82, 1-{(R)-4-[4-(1H-Benzoimidazol-2-yl)-2-(2-methoxy-phenyl)-thiazol-5-yl]-2-methyl-piperazin-1-yl}-2-imidazo[4,5-b]pyridin-3-yl-ethanone] | 96 |
| Cc1nc(-c2nc3ccccc3[nH]2)c(N2CCN(C(=O)Cn3ccc4cccnc43)CC2)s1 [Example 40, 1-{4-[4-(1H-Benzoimidazol-2-yl)-2-methyl-thiazol-5-yl]-piperazin-1-yl}-2-pyrrolo[2,3-b]pyridin-1-yl-ethanone] | 20 |
| C[C@@H]1CN(c2scnc2-c2nc3c(F)cccc3[nH]2)CCN1C(=O)Cn1ccc2cccnc21 [Example 21, 1-{(R)-4-[4-(4-Fluoro-1H-benzoimidazol-2-yl)-thiazol-5-yl]-2-methyl-piperazin-1-yl}-2-pyrrolo[2,3-b]pyridin-1-yl-ethanone] | 2 |
| Cc1c(Cl)ccc2[nH]c(-c3ncsc3N3CCN(C(=O)Cn4cnc5cccnc54)[C@H](C)C3)nc12 [Example 94, 1-{(R)-4-[4-(5-Chloro-4-methyl-1H-benzoimidazol-2-yl)-thiazol-5-yl]-2-methyl-piperazin-1-yl}-2-imidazo[4,5-b]pyridin-3-yl-ethanone] | 0.5 |
| Cc1ccn(CC(=O)N2CCN(c3scnc3-c3nc4ccccc4[nH]3)CC2)n1 [Example 6, 1-{4-[4-(1H-Benzoimidazol-2-yl)-thiazol-5-yl]-piperazin-1-yl}-2-(3-methyl-pyrazol-1-yl)-ethanone] | 130 |
| O=C(Cn1ccc2cc(Cl)c(Cl)cc21)N1CCN(c2scnc2-c2nc3ccccc3[nH]2)CC1 [Example 53, 1-{4-[4-(1H-Benzoimidazol-2-yl)-thiazol-5-yl]-piperazin-1-yl}-2-(5,6-dichloro-indol-1-yl)-ethanone] | 15 |
| Cc1ccccc1-c1nc(-c2nc3ccccc3[nH]2)c(N2CCN(C(=O)Cn3cnc4cccnc43)[C@H](C)C2)s1 [Example 81, 1-{(R)-4-[4-(1H-Benzoimidazol-2-yl)-2-o-tolyl-thiazol-5-yl]-2-methyl-piperazin-1-yl}-2-imidazo[4,5-b]pyridin-3-yl-ethanone] | 23 |
| Cc1cn(CC(=O)N2CCN(c3scnc3-c3nc4ccccc4[nH]3)CC2)c2ccc(F)cc12 [Example 63, 1-{4-[4-(1H-Benzoimidazol-2-yl)-thiazol-5-yl]-piperazin-1-yl}-2-(5-fluoro-3-methyl-indol-1-yl)-ethanone] | 13 |
| COc1ccc2ccn(CC(=O)N3CCN(c4scnc4-c4nc5ccccc5[nH]4)CC3)c2n1 [Example 69, 1-{4-[4-(1H-Benzoimidazol-2-yl)-thiazol-5-yl]-piperazin-1-yl}-2-(6-methoxy-pyrrolo[2,3-b]pyridin-1-yl)-ethanone] | 69 |
| O=C(Cn1ccc2ccc(F)cc21)N1CCN(c2scnc2-c2nc3ccccc3[nH]2)CC1 [Example 56, 1-{4-[4-(1H-Benzoimidazol-2-yl)-thiazol-5-yl]-piperazin-1-yl}-2-(6-fluoro-indol-1-yl)-ethanone] | 4 |
| C[C@@H]1CN(c2scnc2-c2nc3cc(Cl)c(F)cc3[nH]2)CCN1C(=O)Cn1ccc2cccnc21 [Example 26, 1-{(R)-4-[4-(5-Chloro-6-fluoro-1H-benzoimidazol-2-yl)-thiazol-5-yl]-2-methyl-piperazin-1-yl}-2-pyrrolo[2,3-b]pyridin-1-yl-ethanone] | 1 |

Second part, the compound after the results:

| IC50 [nM] | Structure (SMILES) |
| --- | --- |
| 64 | C[C@@H]1CN(c2scnc2-c2nc3ccccc3[nH]2)CCN1C(=O)Cn1cccc2oc(=O)nc1-2 [Example 156, 4-(2-{(R)-4-[4-(1H-Benzoimidazol-2-yl)-thiazol-5-yl]-2-methyl-piperazin-1-yl}-2-oxo-ethyl)-4H-oxazolo[4,5-b]pyridin-2-one] |
| 99 | O=C(CN1CCOc2ccccc21)N1CCN(c2scnc2-c2nc3ccccc3[nH]2)CC1 [Example 106, 1-{4-[4-(1H-Benzoimidazol-2-yl)-thiazol-5-yl]-piperazin-1-yl}-2-(2,3-dihydro-benzo[1,4]oxazin-4-yl)-ethanone] |
| 75 | C[C@@H]1CN(c2scnc2-c2nc3ccccc3[nH]2)CCN1C(=O)Cc1ccc2ccccc2c1 [Example 117, 1-{(R)-4-[4-(1H-Benzoimidazol-2-yl)-thiazol-5-yl]-2-methyl-piperazin-1-yl}-2-naphthalen-2-yl-ethanone] |
| 6 | C[C@@H]1CN(c2scnc2-c2nc3ccccc3[nH]2)CCN1C(=O)Cc1csc2ccccc12 [Example 133, 2-Benzo[b]thiophen-3-yl-1-{(R)-4-[4-(1H-benzoimidazol-2-yl)-thiazol-5-yl]-2-methyl-piperazin-1-yl}-ethanone] |
| 71 | C[C@@H]1CN(c2scnc2-c2nc3ccccc3[nH]2)CCN1C(=O)Cc1cn(C)c2ccccc12 [Example 125, 1-{(R)-4-[4-(1H-Benzoimidazol-2-yl)-thiazol-5-yl]-2-methyl-piperazin-1-yl}-2-(1-methyl-1H-indol-3-yl)-ethanone] |
| 11 | C[C@@H]1CN(c2scnc2-c2nc3cc(Cl)ccc3[nH]2)CCN1C(=O)CN1CCc2ccccc21 [Example 145, 1-{(R)-4-[4-(5-Chloro-1H-benzoimidazol-2-yl)-thiazol-5-yl]-2-methyl-piperazin-1-yl}-2-(2,3-dihydro-indol-1-yl)-ethanone] |
| 14 | COCCOc1ccc2[nH]c(-c3ncsc3N3CCN(C(=O)Cn4c(=O)n(C)c5ccccc54)CC3)nc2c1 [Example 102, 1-[2-(4-{4-[5-(2-Methoxy-ethoxy)-1H-benzoimidazol-2-yl]-thiazol-5-yl}-piperazin-1-yl)-2-oxo-ethyl]-3-methyl-1,3-dihydro-benzoimidazol-2-one] |
| 100 | C[C@@H]1CN(c2sc(CCC(=O)O)nc2-c2nc3ccccc3[nH]2)CCN1C(=O)Cn1ccc2cccnc21 [Example 224, 3-{4-(1H-Benzoimidazol-2-yl)-5-[(R)-3-methyl-4-(2-pyrrolo[2,3-b]pyridin-1-yl-acetyl)-piperazin-1-yl]-thiazol-2-yl}-propionic acid] |
| 69 | C[C@@H]1CN(c2scnc2-c2nc3ccccc3[nH]2)CCN1C(=O)Cc1cccc2[nH]ccc12 [Example 123, 1-{(R)-4-[4-(1H-Benzoimidazol-2-yl)-thiazol-5-yl]-2-methyl-piperazin-1-yl}-2-(1H-indol-4-yl)-ethanone] |
| 14 | Cn1c(=O)n(CC(=O)N2CCN(c3scnc3-c3nc4cc(OCCO)ccc4[nH]3)CC2)c2ccccc21 [Example 101, 1-[2-(4-{4-[5-(2-Hydroxy-ethoxy)-1H-benzoimidazol-2-yl]thiazol-5-yl}-piperazin-1-yl)-2-oxo-ethyl]-3-methyl-1,3-dihydro-benzoimidazol-2-one] |
| 26 | C[C@@H]1CN(c2scnc2-c2nc3ccccc3[nH]2)CCN1C(=O)Cc1ccc2c(c1)CCO2 [Example 136, 1-{(R)-4-[4-(1H-Benzoimidazol-2-yl)-thiazol-5-yl]-2-methyl-piperazin-1-yl}-2-(2,3-dihydro-benzofuran-5-yl)-ethanone] |
| 9 | C[C@@H]1CN(c2scnc2-c2nc3ccccc3n2C)CCN1C(=O)Cn1cnc2cccnc21 [Example 98, 2-Imidazo[4,5-b]pyridin-3-yl-1-{(R)-2-methyl-4-[4-(1-methyl-1H-benzoimidazol-2-yl)-thiazol-5-yl]-piperazin-1-yl}-ethanone] |
| 490 | C[C@@H]1CN(c2scnc2-c2nc3ccccc3[nH]2)CCN1C(=O)Cc1c[nH]c2ccc(Cl)cc12 [Example 127, 1-{(R)-4-[4-(1H-Benzoimidazol-2-yl)-thiazol-5-yl]-2-methyl-piperazin-1-yl}-2-(5-chloro-1H-indol-3-yl)-ethanone] |
| 487 | O=C(Cc1cccnc1)N1CCN(c2scnc2-c2nc3ccccc3[nH]2)CC1 [Example 110, 1-{4-[4-(1H-Benzoimidazol-2-yl)-thiazol-5-yl]-piperazin-1-yl}-2-pyridin-3-yl-ethanone] |
